Source: patent US12578343B2, “Selective ACKR3 modulators and uses thereof” (Luxembourg Institute of Health (LIH), priority 2019, dated 2026)

Molecular target: KOR (Homo sapiens, UniProt P41145)
Experiment: Receptor cell surface level of KOR by HiBiT technology
Format: cell-based
Design: expressed in transfected cells; host or cells: U87 cells, transient, PEI
Details: bafilomycin A1 1.5 μM, 180-minute stimulation
Method: 1.14 Monitoring of Opioid Peptide-Induced Changes in Receptor Cell Surface Levels
Determination of receptor surface expression level by NanoLuc complementation assay was performed using the Nano-Glo HiBiT extracellular detection system (Promega) according to manufacturer's protocol. […] Cells were then incubated with HiBiT extracellular reagent, consisting of Nanoluciferase extracellular substrate and LgBiT protein in HiBiT buffer. Light emission from complementation of LgBiT protein with remaining surface receptor-fused HiBiT was determined on a Mithras LB940 plate reader (Berthold Technologies). Signal was normalised to the measurement recorded at t=1 min. Noteworthy the impact of nociceptin and derivatives could not be determined in this assay due to significant LgBiT protein cross-complementation by nociceptin. Where indicated, cells were treated with bafilomycin A1 (1.5 μM in 0.15% DMSO) (Santa Cruz Biotechnology) or 0.15% DMSO for 45 minutes prior ligand stimulation and during ligand stimulation (180 minutes).

Sequence of KOR (P41145 whole entry): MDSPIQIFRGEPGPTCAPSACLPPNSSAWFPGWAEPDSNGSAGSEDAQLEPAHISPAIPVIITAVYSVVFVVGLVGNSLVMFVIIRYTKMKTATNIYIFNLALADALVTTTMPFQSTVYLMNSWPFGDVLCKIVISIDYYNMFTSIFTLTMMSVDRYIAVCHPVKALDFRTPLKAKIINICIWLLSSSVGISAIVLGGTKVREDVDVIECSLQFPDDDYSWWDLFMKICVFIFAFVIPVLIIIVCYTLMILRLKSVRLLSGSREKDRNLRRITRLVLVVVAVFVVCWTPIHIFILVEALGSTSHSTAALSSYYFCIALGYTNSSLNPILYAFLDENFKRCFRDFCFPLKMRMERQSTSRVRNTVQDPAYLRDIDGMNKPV

CO/C1=C\C(C)=C\[C@@H](C)[C@@H](O)[C@@H](C)C/C(C)=C/C=C/[C@H](OC)[C@@H]([C@@H](C)[C@@H](O)[C@H](C)[C@@]2(O)C[C@@H](O)[C@H](C)[C@@H](C(C)C)O2)OC1=O [bafilomycin A1]
surface levels of KOR following stimulation with opioid peptides: no effect on surface levels of KOR
